Here are results for 14 molecules from patent US6956037B2, “Benzamide derivatives for the treatment of diseases mediated by cytokines” (AstraZeneca AB, priority 1998, dated 2005).

In data set [1] the test system is TNFα production by human peripheral blood mononuclear cells. Put plainly: PBMC test: inhibition of LPS-stimulated TNFα production. The format is cell-based. As to the method: The ability of compounds of this invention to inhibit TNFα production was assessed by using human peripheral blood mononuclear cells which synthesise and secrete TNFα when stimulated with lipopolysaccharide.
Peripheral blood mononuclear cells (PBMC) were isolated from heparinised (10 units/ml heparin) human blood by density centrifugation (Lymphoprep™; Nycomed). Mononuclear cells were resuspended in culture medium [RPMI 1640 medium (Gibco) supplemented with 50 units/ml penicillin, 50 μg/ml streptomycin, 2 mM glutamine and 1% heat-inactivated human AB serum (Sigma H-1513)]. Compounds were solubilised in DMSO at a concentration of 50 mM, diluted 1:100 in culture medium and subsequently serial dilutions were made in culture medium containing 1% DMSO. PBMCs (2.4×10^5 cells in 160 μl culture medium) were incubated with 20 μl of varying concentrations of test compound (triplicate cultures) or 20 μl culture medium containing 1% DMSO (control wells) for 30 minutes at 37° C. in a humidified (5% CO2/95% air) incubator (Falcon 3072; 96 well flat-bottom tissue culture plates). […] TNFα levels were determined in each sample using a human TNFα ELISA (see WO92/10190 and Current Protocols in Molecular Biology, vol 2 by Frederick M/Ausbel et al., John Wiley and Sons Inc.). […]

Data set [2] deals with TNFα production by human whole blood. The experiment in a line: Human Whole Blood test: inhibition of LPS-stimulated TNFα production. The format is cell-based. Here is the method:
The ability of the compounds of this invention to inhibit TNFα production was also assessed in a human whole blood assay. Human whole blood secretes TNFα when stimulated with LPS. This property of blood forms the basis of an assay which is used as a secondary test for compounds which profile as active in the PBMC test.
Heparinised (10 units/ml) human blood was obtained from volunteers. 160 μl whole blood were added to 96 well round-bottom plates (Corning 25850). Compounds were solubilised and serially diluted in RPMI 1640 medium (Gibco) supplemented with 50 units/ml penicillin 50 μg/ml streptomycin and 2 mM glutamine, as detailed above. 20 μl of each test concentration was added to appropriate wells (triplicate cultures). 20 μl of RPMI 1640 medium supplemented with antibiotics and glutamine was added to control wells. Plates were incubated for 30 minutes at 37° C. (humidified incubator), prior to addition of 20 μl LPS (final concentration 10 μg/ml). RPMI 1640 medium was added to control wells. Six “LPS alone” and four “medium alone” controls were included on each plate. A known TNFα synthesis/secretion inhibitor was included in each test. Plates were incubated for 6 hours at 37° C. (humidified incubator). […] TNFα levels were measured by ELISA (see WO92/10190 and Current Protocols in Molecular Biology, vol 2 by Frederick M. Ausbel et al., John Wiley and Sons Inc.). […]

For another data set, the target named is T1, p38α (Homo sapiens, UniProt Q16539).
T1 construct: c-myc (N); 6His (N); made in house; host or cells: E. coli (PET vectors)
The experiment in a line: In vitro enzyme assay, p38 kinase inhibition. The note with it: read-out: IC50 against p38α. The format is biochemical. Here is the method:
The ability of compounds of the invention to inhibit the enzyme p38 kinase was assessed. Activity of test compounds against each of the p38α and p38β isoforms of the enzyme was determined. […]
Test compounds were solubilised in DMSO and 10 μl of a 1:10 diluted sample in ‘Kinase Buffer’ was added to a well in a Microtiter plate. […] The precipitated protein was phosphorylated by p38 kinase and test compounds were assessed for their ability to inhibit this phosphorylation. The plates were filtered using a Canberra Packard Unifilter and washed with 2% TCA, dried overnight and counted on a Top Count scintillation counter.
Test compounds were tested initially at a single dose and active compounds were retested to allow IC50 values to be determined.

T1 sequence (Q16539 whole entry): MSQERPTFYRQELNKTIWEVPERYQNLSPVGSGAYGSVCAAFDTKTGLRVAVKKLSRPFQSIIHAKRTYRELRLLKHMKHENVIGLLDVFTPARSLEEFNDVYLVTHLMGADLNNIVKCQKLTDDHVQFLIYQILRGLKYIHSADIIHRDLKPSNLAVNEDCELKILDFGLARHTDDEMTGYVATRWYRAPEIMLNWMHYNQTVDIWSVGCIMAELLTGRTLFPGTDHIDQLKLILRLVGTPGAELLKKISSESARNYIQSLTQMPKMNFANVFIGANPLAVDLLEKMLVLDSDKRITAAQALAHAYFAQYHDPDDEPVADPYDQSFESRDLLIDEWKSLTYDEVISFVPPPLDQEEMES

Take `COc1ccc(C(=O)Nc2cc(NC(=O)c3cccc(NS(C)(=O)=O)c3)ccc2C)cc1OC` [Example 1, N-[5-(3-methanesulphonylaminobenzamido)-2-methylphenyl]-3,4-dimethoxybenzamide]: the melting point is above 300 °C.

Consider `COc1ccc(C(=O)Nc2cc(NC(=O)c3ccc(OCCCCl)cc3)ccc2C)cc1OC` [Example 3, N-{5-[4-(3-chloropropoxy)benzamido]-2-methylphenyl}-3,4-dimethoxybenzamide], for which the melting point lay within 186 to 187 °C.

As for `COc1ccc(C(=O)Nc2cc(NC(=O)c3ccc(OCCN4CCCC4)cc3)ccc2C)cc1OC` [Example 4, N-{5-[4-(2-pyrrolidin-1-ylethoxy)benzamido]-2-methylphenyl}-3,4-dimethoxybenzamide], the melting point was 165 to 166 °C.

In the case of `COc1ccc(C(=O)Nc2cc(NC(=O)c3ccc(OCCCN4CCOCC4)cc3)ccc2C)cc1OC` [Example 5, Compound No. 3, N-{2-methyl-5-[4-(3-morpholinopropoxy)benzamido]phenyl}-3,4-dimethoxybenzamide], the melting point lay within 148 to 149 °C.

As for `Cc1ccc(NC(=O)c2cccc(N3CCOCC3)c2)cc1NC(=O)c1cccc(OCCN2CCCC2)c1` [Example 7, Compound No. 19, N-[2-methyl-5-(3-morpholinobenzamido)phenyl]-3-(2-pyrrolidin-1-ylethoxy)benzamide], the figures for the IC50 (in data set [1]; in data set [2]; at p38α) were around 1000 nM, around 6000 nM and around 100 nM, respectively.

Take `COCCOc1ccc(C(=O)Nc2cc(NC(=O)c3ccc(C#N)cc3)ccc2C)cc1` [Example 8, N-[5-(4-cyanobenzamido)-2-methylphenyl]-4-(2-methoxyethoxy)benzamide]: the 50% inhibitory concentration (IC50) in data set [1] is around 3000 nM; on p38α, around 100 nM.

The molecule `COc1ccc(C(=O)Nc2cc(NC(=O)c3cccc(OCC(=O)O)c3)ccc2C)cc1OC` [Example 18, N-[5-(3-carboxymethoxybenzamido)-2-methylphenyl]-3,4-dimethoxybenzamide] yielded a melting point of 206 to 207 °C.

Take `COc1ccc(C(=O)Nc2cc(NC(=O)c3ccc(N(C)CCCN(C)C)cc3)ccc2C)cc1OC` [Example 20, N-{5-[4-(N-(3-dimethylaminopropyl)-N-methylamino)benzamido]-2-methylphenyl}-3,4-dimethoxybenzamide]: the melting point is 164 to 165 °C.

`Cc1ccc(NC(=O)c2cccc(N3CCOCC3)c2)cc1NC(=O)c1cccc(OC2CCNCC2)c1` [Example 25, N-[2-methyl-5-(3-morpholinobenzamido)phenyl]-3-piperidin4-yloxybenzamide] displayed a melting point of 162 to 166 °C.

`CCS(=O)(=O)Nc1cccc(C(=O)Nc2ccc(C)c(NC(=O)c3ccc(OC)c(OC)c3)c2)c1` [Example 26, N-{5-[3-(N-methylmethanesulphonylamino)benzamido]-2′-methylphenyl}-3,4-dimethoxybenzamide] displayed a melting point of 168 to 169 °C.

In turn, `Cc1ccc(NC(=O)c2cccc(N(C)C)c2)cc1NC(=O)c1cccc(NS(C)(=O)=O)c1` [Example 27, N-[5-(3-dimethylaminobenzamido)-2-methylphenyl]-3-methanesulphonylaminobenzamide] showed a melting point of 239 to 240 °C.

`Cc1ccc(NC(=O)c2cccc(N(C)C)c2)cc1NC(=O)c1ccccc1NCCCN1CCOCC1` [Example 35, N-[5-(3-dimethylaminobenzamido)-2-methylphenyl]-2-(3-morpholinopropylamino)benzamide]: the melting point is 239 to 240 °C.

`Cc1ccc(NC(=O)c2cccc(N(C)C)c2)cc1NC(=O)c1ccc(N(C)CCCN(C)C)cc1` [Example 36, N-[5-(3-dimethylaminobenzamido)-2-methylphenyl]-4-(3-dimethylamino-N-methylpropylamino)benzamide] showed a melting point of 178 to 179 °C.

`CCCS(=O)(=O)Nc1cccc(C(=O)Nc2cc(NC(=O)c3cccc(N4CCOCC4)c3)ccc2C)c1` [Example 62, N-[2-methyl-5-(3-morpholinobenzamido)phenyl]-3-(N-ethylmethanesulphonylamino)benzamide] showed a melting point of 192 to 193 °C.

As usually defined, the melting point is the temperature of the solid-liquid transition. As a reminder, the IC50 is the concentration that inhibits the measured activity by half.
